Measurements reported in patent publication US8815900B2, “Compounds and compositions for reducing lipid levels” (CVI Pharmaceuticals Limited, priority 2007, dated 2014).

Test system: LDLR ligand uptake activity in HepG2 cells
Assay: DiI-LDL uptake (LDLR ligand uptake activity) in HepG2 cells; note: key: +: slightly increased fluorescent intensity over control; ++: modestly increased fluorescent intensity over control; +++: strongly increased fluorescent intensity over control
Type: cell-based, Human
Details: 20 hours, B, compound dose ≦ 40 μM
Method: HepG2 cells (2×10^5 cells/well) in 24-well culture plates were treated with various compounds at indicated concentrations for 20 hours. The fluorescent 1,1′-dioctadecyl-3,3,3′,3′-tetramethylindocarbocyanin perchlorate (DiI-LDL) (Biomedical Technologies, Stoughton, Mass.) at a concentration of 2 μg/mL was added to cells at the end of treatment. After 4 hours, the medium was removed, cells were washed with cold PBS, and were examined immediately under a fluorescent microscope (Nikon) at 200× amplification. The fluorescent intensity in compound-treated cells was compared to that in untreated control cells. […] In these experiments berberine chloride was used for comparison.

Structure (SMILES): COc1cc2c(cc1OC)[C@H]1[C@@H](C)c3ccc(OC)c(OC)c3CN1CC2 [CRDL, 14R,13S-(+)-corydaline]
- Activity on DiI-LDL uptake: ++
